Experimental data published in PMC4482410, “A Peptide Mimetic of 5-Acetylneuraminic Acid-Galactose Binds with High Avidity to Siglecs and NKG2D” (PLoS ONE, 2015).
Values joined by “and” are separate entries in the source; they are usually repeats but may differ in a detail not shown here. Equal values may be shown once. Bridges are numbered along the chain shown (N, C = ends). Roman numbers before positions name the chains, in order. Where no end group is shown, it is not given here.

Assays:
NKG2D [1] = biological target: T1, NKG2D (Homo sapiens, UniProt P26718); experiment: inhibition of binding of svH1C to NKG2D; conditions: estimated from fetuin inhibition (Fig 4); read-out: binding constant of svH1C to NKG2D estimated by inhibition of binding by fetuin
T1 construct: the extracellular lectin-type domain was fused at the N-terminus with a human IgG1 Fc domain; purchased R&D Systems, Inc., Minneapolis, MN
T1 sequence (P26718 73-216 limits assumed): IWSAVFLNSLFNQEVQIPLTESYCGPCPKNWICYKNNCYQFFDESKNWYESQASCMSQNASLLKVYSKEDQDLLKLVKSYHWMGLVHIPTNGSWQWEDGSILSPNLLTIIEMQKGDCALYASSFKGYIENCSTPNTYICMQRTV
Procedure: (§1) Isothermal microcalorimetry was performed by TA Instruments Professional Services (New Castle, DE) by titrating 10 μM NKG2D (monomer concentration) (R&D Systems, Inc., Minneapolis, MN) with 100 μM svH1C in 50 mM Tris-HCl, pH 7.5, 150 mM NaCl, 0.1 mM EDTA. Recombinant human receptors were obtained from R&D Systems as chimeric proteins. NKG2D is a type II transmembrane protein and the extracellular lectin-type domain was fused at the N-terminus with a human IgG1 Fc domain. Recombinant siglecs contained a C-terminal IgG1 Fc domain or a His6–10 tag. The lyophilized proteins were reconstituted in phosphate-buffered saline, pH 7.2 (PBS), to 100 μg/mL. The Fc-chimeric proteins were bound to protein A/G-coated wells of microtiter plates (Pierce Biotechnology). His-tagged proteins were bound in Nickel-coated plates (Pierce Biotechnology). Sufficient proteins were added to wells to saturate the binding capacity of the wells. After a wash to remove unbound receptor, wells were blocked with 1% gelatin in wash buffer. […] Absorbance was measured at 450 nm and converted to the amount of streptavidin-peroxidase bound with the specific activity of the conjugate determined under the conditions of the assay. […]
Fig 4 Binding of svH1C to NKG2D. (A) The amount of bound peptide was measured after extensive washing with PBS containing 0.05% Tween-20. […]

NKG2D [2] = biological target: T1, NKG2D; experiment: isothermal microcalorimetry; assay type: binding
Procedure: as §1, with “wells.” for “wells. After a wash to remove unbound receptor, wells were blocked with 1% gelatin in wash buffer.”
We then assayed binding of svH1C to NKG2D directly by isothermal microcalorimetry. svH1C (100 μM) was titrated into a solution of NKG2D (10 μM, subunit concentration) and changes in heat content of the system were measured. […]

toxicity in vivo = conditions: statement for svH1C or similar glycan mimetics; no data shown
siglecs = experiment: solid-phase binding of biotinylated tetravalent peptides to siglecs; set-up: species or system human; conditions: biotinylated peptides 2 μM
Procedure: as §1, with “buffer. Wash buffers were either 10 mM phosphate, pH 7.2; 10 mM HEPES, pH 7.4; or 50 mM Tris-HCl, pH.7.5, each in 150 mM NaCl containing 0.05% Tween-20. Biotinylated peptides were prepared as 2 μM solutions in the wash buffer and 50 μL (100 pmoles) were added to each well and incubated at room temperature for one hour. After four washes with 350 μL buffer containing 0.05% Tween-20, each assay was incubated with 50 μL of 1 μg/mL streptavidin-peroxidase (Sigma-Aldrich, St. Louis, MO).” for “buffer.”
MAA is a mixture of M. amurensis leukoagglutinin (MAL) and M. amurensis hemagglutinin (MAH), both of which along with SNA1 bind preferentially to terminal Neu5Ac-Gal- sequences on complex glycans. Binding of the peptide to several lectins specific for monosaccharides was not detected. […]

[3] = test system: lectins that bind monosaccharides; conditions: ref [29],[30]; cited from earlier work
Description: We initially identified several sequences of amino acids that bound to specific plant lectins by screening phage display libraries. Sequences were further refined by in silico modeling of docking of a peptide into the sugar binding site of the crystal structures of lectins. These studies predicted that several short peptide sequences, 5 to 8 amino acids in length, would have significant affinity to lectins chosen as analogs of cell-surface receptors. […] MAA is a mixture of M. amurensis leukoagglutinin (MAL) and M. amurensis hemagglutinin (MAH), both of which along with SNA1 bind preferentially to terminal Neu5Ac-Gal- sequences on complex glycans. Binding of the peptide to several lectins specific for monosaccharides was not detected. We then assayed binding of svH1C to several siglecs, which comprise a family of cell-surface receptors that are specific for Neu5Ac-Gal/GalNAc- sequ ...

[4] = test system: lectins specific for di- or tri-saccharides that terminate with Neu5Ac-Gal; conditions: ref [29],[30]; cited from earlier work
Description: We initially identified several sequences of amino acids that bound to specific plant lectins by screening phage display libraries. Sequences were further refined by in silico modeling of docking of a peptide into the sugar binding site of the crystal structures of lectins. These studies predicted that several short peptide sequences, 5 to 8 amino acids in length, would have significant affinity to lectins chosen as analogs of cell-surface receptors. The sequences identified by this approach were incorporated into tetravalent structures, a design based on the concept of avidity as a fun ...

With “I: NPSHPLSGGGGSKK-NH2 / II: NPSHPLSGGGGSK / III: NPSHPLSGGGGS / IV: NPSHPLSGGGGS (amide I:13-IV:C, I:14-II:C, II:13-III:C) [svH1C, [(NPSHPLSGGGGS)2K]2K-NH2]” the Kd (NKG2D [1]) was about 1000 nM, the Kd (NKG2D [2]; 100 μM svH1C titrated into 10 μM NKG2D (subunit concentration), 50 mM Tris-HCl, pH 7.5, 150 mM NaCl, 0.1 mM EDTA, read-out: KD) was 580 nM and 600 nM and the Kd (NKG2D [2]; abstract, range for siglecs and NKG2D together, read-out: KD, NKG2D (abstract range)) was 600 to 1000 nM. For the same substance, the toxicity in vivo (toxicity in vivo) was “non-toxic in vivo”.
In the case of “NPSHPSLG (also: tetravalent, biotinylated) [svH1D]”, the “binding of biotinylated tetravalent peptides to siglecs” value (siglecs) is listed as “also bound to siglecs”, the “binding to lectins specific for monosaccharides” value [3] is listed as “did not bind” and the “binding to lectins specific for di- or tri-saccharides that terminate with Neu5Ac-Gal” value [4] is listed as “bound strongly”.
